Experimental findings from US20250161419A1, “SERPIN PEPTIDES AND METHODS OF USING THE SAME” (SERPIN PHARMA, LLC, priority 2022, published 2025) are described below.

One experiment concerns TLR4. Description: Immunoblot of injured sciatic nerve two days after PNL, TLR4. The experiment is classed as in vivo, mouse. Conditions: 2 μg/g s.c. How it is done: Neuropathic pain model: Mice (n=30) were randomly assigned to two different groups: SP163M (2 μg/g; s.c. 100 μl) and vehicle (H20 s.c. 100 μl). Mice were treated 1 h prior to partial nerve ligation (PNL) and then daily at least 1 h prior to behavior testing for 2 weeks. PNL studies were performed as previously disclosed^59 and adapted for mice.^57 Male mice were anesthetized with 3% isoflurane (Vetone, USA) in 1.5 L/min oxygen (Praxair, USA) and maintained with 2.5% isoflurane. An incision was made along the long axis of the femur. […] Filaments were presented in a consecutive fashion either ascending or descending using the up-down method as previously disclosed^60 and modified for mice.^57,61 The filament that caused paw withdrawal 50% of the time (the 50% PWT) was determined. […]
Immunoblots of sciatic nerve: Sciatic nerves were harvested 2 days after PNL to identify early molecular and cellular changes. […] Nerves were lysed in RIPA buffer and equal amounts of protein (20 μg) from nerves lysates, as determined by BCA Protein Assay (Bio-Rad, Hercules, CA, USA), were subjected to 10% SDS-PAGE and electro-transferred to nitrocellulose membranes. […] Primary antibodies were detected with HRP-conjugated species-specific secondary antibodies (Cell Signaling Technology, Danvers, MA, USA; cat #7076S or 4S; 1:5000). […]

Experiment [1] concerns TSLP. Put plainly: MC903 AD model, TSLP in ears and serum by ELISA. The format is in vivo, mouse. The settings on record: topical, vs MC903 treated mice. How it is done: (§1) Mice were treated with SP16 in 70% EtOH (MC903+SP16) or drug vehicle (MC903). Normal control (NC) mice were treated with EtOH only. Ears were measured for PAR2 protein expression through western blot analysis (quantitative analysis after normalization to beta-actin shown) (n=3-5). TSLP was measured in both the ears and serum by ELISA (N=3-5). Scratching was assessed over a 3 minute period after a 5-minute acclimatization period and the number of scratches are shown (n=3). IL-4 was measured in ear lysate via ELISA (N=3-5).

The test system of the next experiment is IL-4. Description: MC903 AD model, IL-4 in ear lysate by ELISA. The experiment is classed as in vivo, mouse. The settings on record: topical, vs MC903. As to the method: as §1
Experiment [2] deals with TSLP. Put plainly: Poly I:C-induced TSLP production by SPINK7 knockout EPC2 cells (ELISA). The format is cell-based, human. The settings on record: Poly I:C 5 μg/ml, 8 hours. How it is done: FIG. 12A: Poly I:C-induced TSLP production by SPINK7 knockout EPC2 cells (Human esophageal epithelial cells). SPINK7 KO cells and control cells were plated in high calcium and high density, for 48 hours before being treated with SP16 or 7G and Poly I:C (5 μg/ml, or untreated) for 8 hours. TSLP production in the supernatant was measured by ELISA. FIG. 12B: primary esophageal epithelial cells (EPC2) were treated with SP16 and then stimulated with IL-13, a TH2 response mediated cytokine, to induce CCL26.
SP16 reduces several key cytokines involved in allergic responses. Upon knockout of SPINK7, esophageal epithelial cells release exacerbated levels of TSLP. TSLP is a key mediator of immune cell responses upon activation to an insult such as allergens.

Another experiment has as its system CCL24. Description: OVA-challenge allergic inflammation model, CCL24 in BALF by ELISA. The experiment is classed as in vivo, mouse. The settings on record: OVA-challenge in sensitized mice, treated during challenge phase, vs vehicle. How it is done: (§2) Mice were subjected to the OVA-challenge allergic inflammation model and treated with vehicle or SP16 during the challenge phase. The bronchoalveolar lavage fluid (BALF) was analyzed for cytokines via ELISA.
(§3) The ova-induced model of allergic inflammation is a widely used model of eosinophilic driven allergic diseases.

The subject of another experiment is IL-1a. Put plainly: OVA-challenge allergic inflammation model, IL-1a in BALF by ELISA. The settings on record: OVA-challenge in sensitized mice, treated during challenge phase, vs vehicle. The experiment is classed as in vivo, mouse. How it is done:
as §2, §3

The test system of another experiment is IL-2. Description: OVA-challenge allergic inflammation model, IL-2 in BALF by ELISA. The format is in vivo, mouse. The settings on record: OVA-challenge in sensitized mice, treated during challenge phase, vs vehicle. How it is done: as §2, §3

Regarding “VKFNKPFVFLMIEQNTK (SP16 peptide core sequence including the LRP1 binding site; listed as Homo sapiens)”, in the experiment with TLR4, the “TLR4 expression in injured sciatic nerve (immunoblots)” value was “robustly down regulated TLR4 expression”. In addition, in the experiment with TSLP [1], the “local (ear) TSLP” value was “significant reduction in systemic (serum) and local (ear) TSLP”; the “systemic (serum) TSLP” value was “significant reduction in systemic (serum) and local (ear) TSLP”. Besides, the “IL-4 release in the skin tissue (ear lysate)” value in the experiment with IL-4 is given as “significantly reduced”. In addition, the “Poly I:C mediated TSLP release” value in the experiment on TSLP [2] is “effective in significantly reducing Poly 1:C mediated TSLP and CCL26 release”. For the same sequence, the “CCL24 in BALF” value with CCL24 is “significantly reduces CCL24”. Moreover, in the experiment with IL-1a, the “IL-1a in BALF” value is recorded as “significantly reduces IL-1a”. Moreover, in the experiment with IL-2, the “IL-2 in BALF” value is reported as “significantly reduces IL-2”.
